Measurements from the NIST ThermoML archive (doi:10.1021/je060124c).

Experiment: mn = molality of the nth substance listed, in mol/kg
Conditions: Liquid, Capillary tube (Ostwald / Ubbelohde) method

[Cl-].[Li+] [lithium chloride] + O
viscosity [mPa·s]
Conditions	100 kPa	10000 kPa	20000 kPa	40000 kPa
298.15 K, m1 = 0.0473	0.8971	0.8975	0.898	0.899
298.15 K, m1 = 0.1185	0.907	0.9075	0.908	0.909
298.15 K, m1 = 0.4814	0.9559	0.9562	0.957	0.958
298.15 K, m1 = 1.242	1.062	1.062	1.062	1.062
298.15 K, m1 = 2.621	1.289	1.29	1.291	1.292
298.15 K, m1 = 5.897	1.925	1.926	1.927	1.928
298.15 K, m1 = 7.863	2.535	2.536	2.537	2.538
298.15 K, m1 = 10.11	3.426	3.427	3.428	3.429
298.15 K, m1 = 12.7	5.414	5.416	5.418	5.42
298.15 K, m1 = 16.39	9.44	9.443	9.449	9.451
323.15 K, m1 = 0.0473	0.5513	0.5535	0.5551	0.5594
323.15 K, m1 = 0.1185	0.5573	0.5599	0.5618	0.5665
323.15 K, m1 = 0.4814	0.5884	0.5905	0.5927	0.5974
323.15 K, m1 = 1.242	0.6546	0.657	0.66	0.66
323.15 K, m1 = 2.621	0.7967	0.8	0.8028	0.8094
323.15 K, m1 = 5.897	1.206	1.21	1.215	1.224
323.15 K, m1 = 7.863	1.576	1.582	1.588	1.601
323.15 K, m1 = 10.11	2.116	2.123	2.131	2.147
323.15 K, m1 = 12.7	3.121	3.131	3.143	3.167
323.15 K, m1 = 16.39	5.173	5.19	5.209	5.249
348.15 K, m1 = 0.0473	0.381	0.3839	0.387	0.392
348.15 K, m1 = 0.1185	0.3851	0.388	0.391	0.3968
348.15 K, m1 = 0.4814	0.4072	0.4099	0.4128	0.4189
348.15 K, m1 = 1.242	0.4536	0.4575	0.462	0.462
348.15 K, m1 = 2.621	0.5541	0.5583	0.5621	0.5704
348.15 K, m1 = 5.897	0.8423	0.8484	0.8546	0.8667
348.15 K, m1 = 7.863	1.102	1.109	1.117	1.133
348.15 K, m1 = 10.11	1.466	1.476	1.487	1.507
348.15 K, m1 = 12.7	2.075	2.09	2.104	2.134
348.15 K, m1 = 16.39	3.293	3.316	3.339	3.386
370.2 K, m1 = 2.621	0.428	0.4328	0.4367	0.4449
370.4 K, m1 = 7.863	0.8587	0.867	0.8747	0.8907
370.45 K, m1 = 10.11	1.127	1.138	1.148	1.169
370.55 K, m1 = 12.7	1.53	1.544	1.559	1.587
370.7 K, m1 = 5.897	0.6536	0.6594	0.666	0.6781
371.25 K, m1 = 1.242	0.3462	0.3496	0.353	0.353
371.43 K, m1 = 0.4814	0.3099	0.313	0.3159	0.3217
372.06 K, m1 = 0.1185	0.2906	0.2912	0.2961	0.3015
372.33 K, m1 = 0.0473	0.2867	0.2894	0.2921	0.2975
372.4 K, m1 = 16.39	2.308	2.329	2.351	2.394
397.2 K, m1 = 5.897	–	0.5175	0.5233	0.5352
397.25 K, m1 = 12.7	–	1.162	1.175	1.202
397.6 K, m1 = 10.11	–	0.8792	0.8897	0.9092
398.95 K, m1 = 0.0473	–	0.2258	0.228	0.2335
399.2 K, m1 = 16.39	–	1.71	1.73	1.769
399.31 K, m1 = 7.863	–	0.6675	0.6758	0.6916
399.72 K, m1 = 2.621	–	0.3286	0.3327	0.3409
399.74 K, m1 = 0.1185	–	0.2261	0.2292	0.2339
399.75 K, m1 = 0.4814	–	0.24	0.243	0.2483
400.25 K, m1 = 1.242	–	0.2663	0.2696	0.2696
420.32 K, m1 = 0.4814	–	0.2047	0.2074	0.2127
421.03 K, m1 = 0.1185	–	0.1915	–	–
